Test results: patent publication US9011882B2, “Dimethylarginine dimethylaminohydrolase inhibitors and methods of use thereof” (The Board of Trustees of the Leland Stanford Junior …, priority 2012, dated 2015)
Values belong to the molecule of their own block, whether it stands above or below them.

Experiments:
[1] = molecular target: T1, human DDAH1 (Homo sapiens (Human), UniProt O94760); experiment: Inhibitors of human DDAH-1 validated in full dose-response curves (Table 1); format: biochemical; conditions: for IC50: Assay Explorer software
T1 sequence (O94760 whole entry): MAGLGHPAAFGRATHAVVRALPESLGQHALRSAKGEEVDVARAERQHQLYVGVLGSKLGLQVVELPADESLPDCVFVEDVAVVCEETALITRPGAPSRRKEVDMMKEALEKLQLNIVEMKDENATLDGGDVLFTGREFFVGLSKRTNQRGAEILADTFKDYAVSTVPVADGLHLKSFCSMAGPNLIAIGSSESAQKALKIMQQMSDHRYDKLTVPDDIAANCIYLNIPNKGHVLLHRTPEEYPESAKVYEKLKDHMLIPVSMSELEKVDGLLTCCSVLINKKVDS
Method: (§1) Over 130,000 small molecules deposited in the Stanford High-throughput Bioscience Center (HTBC) were screened using the enzymatic assay to identify chemicals that regulate DDAH activity. In brief, recombinant human DDAH1 (rhDDAH1) was mixed with ADMA in the presence of screening buffer in 384-well plates using a Staccato multidrop. Small molecules (100 nL each) were then added to the wells using a robotic arrayer to yield a final compound screening concentration of up to 50 μM. Plates were incubated at 37° C. for 4 hours. Subsequently, color developing reagent (containing 2 volumes of Antipyrine and 1 volume of 2,3-Butanedione oxime reagents) was added using Velocity 11 system and the plates were sealed using an automated plate sealer. Finally, color was developed by incubating the plates at 60° C. for 90 minutes prior to spinning them at 1,500 rpm for 5 minutes. In this assay absorbance is proportional to the concentration of citrulline generated by DDAH, and was measured using an AnalystGT plate reader at 485 nm using a dichroic beamsplitter. The signal-to-noise ratio of separation was calculated using an established formula in Zhang. (Zhang, J. H., Chung, T. D. & Oldenburg, K. R. A Simple Statistical Parameter for Use in Evaluation and Validation of High Throughput Screening Assays. J Biomol Screen 4, 67-73 (1999)).
Inhibitors were defined as compounds that reduce absorbance by at least 30% compared to control wells. The hits were validated using 8-point full dose response study (50 μM to 0.39 μM in serial dilutions). […] To determine which of these hits were true inhibitors of DDAH activity, a modification of a validated secondary fluorometric assay was used, as described below. […]

[2] = molecular target: T1, human DDAH1; experiment: Fluorimetric CPM assay of DDAH activity (SMTC substrate); format: biochemical; conditions: for IC50: CPM assay, 100 μM SMTC, Assay Explorer software, read-out: IC50; for inhibition of DDAH activity, CPM fluorometric validation: fresh powders from vendors, vs vehicle
Method: The activity of human DDAH1 was quantified using fluorimetric assay by incubating the enzyme with an artificial substrate S-methyl-thiocitrulline (SMTC). DDAH metabolizes SMTC into L-citrulline and methanethiol (CH3—SH). The thiol released from the reaction can be monitored fluorimetrically by adding 7-Diethylamino-3-(4-maleimidophenyl)-4-methylcoumarin (CPM).
The activity of human DDAH1 was quantified using fluorimetric assay by incubating the enzyme with an artificial substrate S-methyl-thiocitrulline (SMTC), as described in Example 1. DDAH metabolizes SMTC into L-citrulline and methanethiol (CH3—SH). The thiol released from the reaction can be monitored fluorimetrically by adding 7-Diethylamino-3-(4-maleimidophenyl)-4-methylcoumarin (CPM).
For the secondary assay, a fluorimetric assay that uses SMTC as a substrate was adapted. DDAH metabolizes SMTC into L-citrulline and methanethiol (CH3—SH). In brief, DDAH (30 nM final concentration) was mixed with SMTC (100 μM final concentration), CPM (50 μM final concentration) and screening buffer (containing a final concentration of 0.01% Triton-X100 and 1 mM EDTA). The reaction mix was added to black 384-well plates to validate primary hits that modulate DDAH activity. The release of CH3—SH was monitored fluorimetrically by adding 7-Diethylamino-3-(4-maleimidophenyl)-4-methylcoumarin (CPM) as described in Linsky (Linsky, T. & Fast, W. A continuous, fluorescent, high-throughput assay for human dimethylarginine dimethylaminohydrolase-1. J Biomol Screen 16, 1089-1097 (2011)).

[3] = test system: human microvascular endothelial cells (HMEC-1); experiment: Intracellular ADMA by ELISA in endothelial cells; format: cell-based; conditions: 20 μM, 24 hours, compared to vehicle control
Method: (§2) First, human microvascular endothelial cells (HMEC-1; ATCC) were seeded in 75 cm^2 cell culture flasks and cultured in fully supplemented DMEM (Invitrogen cat #11995; supplemented with 10% fetal bovine serum (FBS), 4 mM HEPES; GIBCO 15630 and penicillin/streptomycin). The cells were incubated at 37° C./5% CO2 until ˜60% confluency. The cells were then washed with phosphate buffered saline (PBS) and plain DMEM (DMEM with no addition of serum or the other supplements) was mixed with esomeprazole (20 μM final concentration from 100 mM stock) and added to the cells. […] After ˜4 hrs of incubation, the media was aspirated from each flask and the cells were cultured in fully supplemented DMEM as described above and incubated at 37° C./5% CO2 for another 20 hrs. The serum was initially withdrawn due to the possibility that esomeprazole would interact with Cys containing serum proteins and fail to internalize at effective concentrations.
After 24 hrs, the cells were harvested. Total cellular protein was estimated as described and ADMA was measured by enzyme-linked immunosorbent assay (ELISA) following the manufacturer's recommendations; DLD Diagnostika, Hamburg, Germany).
as §2, with “FBS,” for “fetal bovine serum (FBS),”, “PBS” for “phosphate buffered saline (PBS)”, “PD 404” for “esomeprazole”, “conc” for “concentration”, “The serum was initially withdrawn due to the possibility that esomeprazole would interact with Cys containing serum proteins and fail to internalize at effective concentrations.” left out
After 24 hours, the cells were harvested. Total cellular protein was estimated as described and ADMA was measured by ELISA following the manufacturer's recommendations; DLD Diagnostika, Hamburg, Germany).

[4] = molecular target: recombinant human DDAH1 (rhDDAH1) (Homo sapiens (Human), UniProt O94760); experiment: Colorimetric L-citrulline assay of DDAH activity (ADMA substrate; high throughput screen and orthogonal validation); format: biochemical; conditions: for inhibition of DDAH activity, orthogonal colorimetric assay: fresh powders, FIG. 3, vs vehicle; for IC50: high throughput screen of library copies (BMF-6, BMF-7, BMF-8, MicroSource, LOPAC), dose-dependent inhibition
Sequence of recombinant human DDAH1 (rhDDAH1) (O94760 whole entry): as above
Method: (§3) The enzymatic activity of DDAH was monitored using a colorimetric assay that detects product (L-citrulline) formation from the substrate ADMA. In brief, recombinant human DDAH1 (rhDDAH1) was mixed with ADMA in the presence of screening buffer in 384-well plates. Plates were incubated at 37° C. for 4 hours. Subsequently, color developing reagent (containing 2 volumes of Antipyrine and 1 volume of 2,3-Butanedione oxime reagents) was added and the plates were incubated at 60° C. for 90 min prior to spinning them at 1,500 rpm for 5 min. In this assay absorbance is proportional to the concentration of citrulline generated by DDAH, and was measured using an AnalystGT plate reader at 485 nm using a dichroic beamsplitter.
as §3, with “ADMA, as described in Example 1.” for “ADMA.”, “antipyrine” for “Antipyrine”
The L-citrulline assay was based upon an original test-tube method developed by Prescott and Jones in 1969 (Prescott, L. M. & Jones, M. E. Modified methods for the determination of carbamyl aspartate. Anal Biochem 32, 408-419 (1969)), which was adapted and optimized for a microplate format. Subsequently, the activity of DDAH was quantified by detecting its conversion of ADMA to citrulline using the optimized protocol. The assay was scaled up to a 384-well format for high throughput chemical screening.
as §1
In brief, various amounts of rhDDAH1 (0.1 to 10 μM) were incubated with various concentrations of ADMA (1 μM to 8 mM) for various time points (30 min to 10 h) at room temperature or 37° C. […] The reactions were stopped and color was developed as described above followed by incubation at 60° C. for 90 min. Absorbance, proportional to DDAH activity, was measured at 485 nm±20 nm. In order to screen the entire library, the biochemical properties of the assay were optimized, as described above. The technique was modified so as to reduce the number of steps and facilitate robotic handling and throughput. Subsequently, HTS was performed using 384-well plates. […]

- Hill Slope [1]: 1.6
- IC50 [1]: 23.3 µM
SMILES: O=C(O)c1ccc(N2C(=O)C=CC2=O)cc1

- Hill Slope [1]: 1.1
- IC50 [1]: 21.2 µM
SMILES: Cc1ccc(NC(=O)/C=C/C(N)=O)cc1

- Hill Slope [1]: 1.1
- IC50 [1]: 45.8 µM
SMILES: Cc1ccc(-c2ccc(CCC(=O)O)o2)cc1

- Hill Slope [1]: 1.7
- IC50 [1]: 13.7 µM
SMILES: Cc1cc(C)c2c(=O)n(CC(=O)NC(C)c3ccccc3)sc2n1 (stereo not shown)

- Hill Slope [1]: 1.6
- IC50 [1]: 14.1 µM
SMILES: Cc1cc(C)c2c(=O)n(CC(=O)NC(C)CCc3ccccc3)sc2n1 (stereo not shown)

- Hill Slope [1]: 1.2
- IC50 [1]: 13.4 µM
SMILES: Cc1cc(C)c2c(=O)n(CC(=O)NCCc3ccc(Cl)cc3)sc2n1

- Hill Slope [1]: 1.5
- IC50 [1]: 10.5 µM
SMILES: CCOc1ccc(CCNC(=O)Cn2sc3nc(C)cc(C)c3c2=O)cc1

- IC50 [2]: 13.3 µM
SMILES: CN=c1nc(-c2ccccc2)n(-c2ccccc2)s1 [SCH-202676]

The next lines start with the molecule.

SMILES: O=C1CC(N2CCCCCC2)C(=O)N1c1cccc2ccccc12 (stereo not shown)
- Hill Slope [1]: 1.8
- IC50 [1]: 13.1 µM

SMILES: N/C=C1\C=C(c2ccccc2)OC1=S
- Hill Slope [1]: 1.3
- IC50 [1]: 17.7 µM

SMILES: Cc1cc(C)c2c(=O)n(CC(=O)NC3CCCC(C)C3C)sc2n1 (stereo not shown)
- Hill Slope [1]: 1.7
- IC50 [1]: 8.6 µM

SMILES: Cc1cc(C)c2c(=O)n(CC(=O)NCCCSC3CCCCC3)sc2n1
- Hill Slope [1]: 1.6
- IC50 [1]: 12.8 µM

SMILES: CCOCCCNC(=O)Cn1sc2nc(C)cc(C)c2c1=O
- Hill Slope [1]: 2.3
- IC50 [1]: 7.1 µM

SMILES: Cc1cc(C)c2c(=O)n(CC(=O)NCc3ccc4c(c3)OCO4)sc2n1
- Hill Slope [1]: 1.5
- IC50 [1]: 11 µM

SMILES: COc1ccc(OC)c(CCNC(=O)Cn2sc3nc(C)cc(C)c3c2=O)c1
- Hill Slope [1]: 1.5
- IC50 [1]: 9.9 µM

SMILES: CCCCNC(=O)Cn1sc2nc(C)cc(C)c2c1=O
- Hill Slope [1]: 1.7
- IC50 [1]: 5.1 µM

SMILES: Cc1cc(C)c2c(=O)n(CC(=O)NCCC3=CCCCC3)sc2n1
- Hill Slope [1]: 2
- IC50 [1]: 11.8 µM

SMILES: COCCNC(=O)Cn1sc2nc(C)cc(C)c2c1=O
- Hill Slope [1]: 1.4
- IC50 [1]: 3.3 µM

SMILES: Cc1cc(C)c2c(=O)n(CC(=O)NCc3ccccc3Cl)sc2n1
- Hill Slope [1]: 0.4
- IC50 [1]: 39.9 µM

SMILES: COc1cnn(-c2ccccc2)c(=O)c1S [4-MMP, 4-mercapto-5-methoxy-2-phenyl-3(2H)-pyridazinone]
- IC50 [2]: 12.7 µM

SMILES: O=c1[nH]sc2ccccc12 [Benzo[d]isothiazol-3(2H)-one]
- Hill Slope [1]: 1
- IC50 [1]: 13.2 µM

SMILES: COc1ccc2nc([S@@+]([O-])Cc3ncc(C)c(OC)c3C)[nH]c2c1 [Esomeprazole]
- increase in intracellular ADMA [3]: ~37%
- inhibition of DDAH activity, CPM fluorometric validation [2]: inhibited DDAH activity significantly
- inhibition of DDAH activity, orthogonal colorimetric assay [4]: significantly inhibited DDAH activity

SMILES: Cc1c(OCC(F)(F)F)ccnc1C[S+]([O-])c1nc2ccccc2[nH]1 (stereo not shown) [Lansoprazole]
- inhibition of DDAH activity, CPM fluorometric validation [2]: inhibited DDAH activity significantly
- IC50 [4]: 51 µM

SMILES: COc1ccnc(C[S+]([O-])c2nc3cc(OC(F)F)ccc3[nH]2)c1OC (stereo not shown) [Pantoprazole]
- inhibition of DDAH activity, CPM fluorometric validation [2]: inhibited DDAH activity significantly
- IC50 [4]: 63 µM

SMILES: COCCCOc1ccnc(C[S+]([O-])c2nc3ccccc3[nH]2)c1C (stereo not shown) [Rabeprazole]
- inhibition of DDAH activity, CPM fluorometric validation [2]: inhibited DDAH activity significantly
- inhibition of DDAH activity, orthogonal colorimetric assay [4]: significantly inhibited DDAH activity

SMILES: COc1ccc2[nH]c([S+]([O-])Cc3ncc(C)c(OC)c3C)nc2n1 (stereo not shown) [Tenatoprazole]
- inhibition of DDAH activity, CPM fluorometric validation [2]: inhibited DDAH activity significantly
- IC50 [4]: 7.8 µM

SMILES: O=c1c2ccccc2[se]n1-c1ccccc1 [ebselen]
- inhibition of DDAH activity, CPM fluorometric validation [2]: confirmed known DDAH inhibitors
